Data as given in patent US11180462B2, “Microbiocidal oxadiazole derivatives” (SYNGENTA PARTICIPATIONS AG, priority 2015, dated 2021).

Legend:
[1] = test system: Puccinia recondita f. Sp. Tritici; assay: Fungicidal activity against Puccinia recondita f. sp. tritici / wheat / leaf disc preventative (brown rust); assay type: in vivo; conditions: foliar, 200 ppm in the applied formulation, wheat leaf segments, preventative, compared to untreated control leaf disks, read-out: disease control
Outline: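 Percent disease control relative to untreated check segments is scored once disease develops, 7 to 9 days after application. Wheat cv. Kanzler segments receive compound spray (200 ppm in formulation) one day before spore inoculation, then sit at 19° C. and 75% rh under 12 h light/12 h dark.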

Phakopsora Pachyrhizi = assay: Fungicidal activity against Phakopsora pachyrhizi / soybean / leaf disc preventative (Asian soybean rust); assay type: in vivo; conditions: foliar, 200 ppm in the applied formulation, soybean leaf disks, compared to untreated control leaf disks, read-out: disease control
Outline: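 Scored 12 to 14 days post-application as percent control relative to untreated check discs, rust spores were sprayed under the disc one day after compound treatment. Incubation: 20°C, 75% rh, first 24–36 h in darkness, then 12 h daily light; discs kept on water agar.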

[2] = test system: Glomerella lagenarium (Colletotrichum lagenarium); assay: Fungicidal activity against Glomerella lagenarium (Colletotrichum lagenarium) liquid culture / cucumber / preventative (anthracnose); assay type: cell-based; conditions: Colletotrichum orbiculare; 20 ppm in the applied formulation; liquid culture (PDB), growth inhibition measured photometrically after 3 to 4 days; compared to untreated control; read-out: disease control
Outline: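 Percent activity against the untreated check was derived from photometric growth measurements made 2 to 7 days after conidia in potato dextrose broth were combined with compound at 20 ppm. Cultures were kept dark at 24 °C and 96% humidity.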

COCCN(Cc1ccc(-c2noc(C(F)(F)F)n2)cc1)C(=O)CC(C)(C)C [Compound 1.342, N-(2-methoxyethyl)-3,3-dimethyl-N-[[4-[5-(trifluoromethyl)-1,2,4-oxadiazol-3-yl]phenyl]methyl]-butanamide]
≥ 80%: pest or weed control at 200 ppm [1] | pest or weed control at 200 ppm (Phakopsora Pachyrhizi) | inhibition of growth at 20 ppm [2]

CCCC(=O)N(Cc1ccc(-c2noc(C(F)(F)F)n2)cc1)CC1CCCO1 (stereo not drawn) [Compound 1.416, N-(tetrahydrofuran-2-ylmethyl)-N-[[4-[5-(trifluoromethyl)-1,2,4-oxadiazol-3-yl]phenyl]methyl]-butanamide]
≥ 80%: pest or weed control at 200 ppm [1] | pest or weed control at 200 ppm (Phakopsora Pachyrhizi) | inhibition of growth at 20 ppm [2]

O=C(CC1CC1)N(Cc1ccc(-c2noc(C(F)(F)F)n2)cc1)CC1CCCO1 (stereo not drawn) [Compound 1.418, 2-cyclopropyl-N-(tetrahydrofuran-2-ylmethyl)-N-[[4-[5-(trifluoromethyl)-1,2,4-oxadiazol-3-yl]phenyl]methyl]-acetamide]
≥ 80%: pest or weed control at 200 ppm [1] | pest or weed control at 200 ppm (Phakopsora Pachyrhizi) | inhibition of growth at 20 ppm [2]

O=C(C1CC1F)N(Cc1ccc(-c2noc(C(F)(F)F)n2)cc1)Cc1ccco1 (stereo not drawn) [Compound 1.471, 2-fluoro-N-(2-furylmethyl)-N-[[4-(5-(trifluoromethyl)-1,2,4-oxadiazol-3-yl]phenyl]methyl]-cyclopropane-carboxamide]
≥ 80%: pest or weed control at 200 ppm [1] | pest or weed control at 200 ppm (Phakopsora Pachyrhizi) | inhibition of growth at 20 ppm [2]

C=CCN(Cc1ccc(-c2noc(C(F)(F)F)n2)cc1)C(=O)C1CCCC1 [Compound 1.475, N-allyl-N-[[4-[5-(trifluoromethyl)-1,2,4-oxadiazol-3-yl]phenyl]methyl]-cyclopentane-carboxamide]
≥ 80%: pest or weed control at 200 ppm [1] | pest or weed control at 200 ppm (Phakopsora Pachyrhizi) | inhibition of growth at 20 ppm [2]

CCON(Cc1ccc(-c2noc(C(F)(F)F)n2)cc1)C(=O)CC [Compound 1.562, N-ethoxy-N-[[4-[5-(trifiuoromethyl)-1,2,4-oxadiazol-3-yl]phenyl]methyl]-propanamide]
≥ 80%: pest or weed control at 200 ppm [1] | pest or weed control at 200 ppm (Phakopsora Pachyrhizi) | inhibition of growth at 20 ppm [2]

CON(Cc1ccc(-c2noc(C(F)(F)F)n2)c(F)c1F)C(=O)c1ccccc1Cl [Compound 1.576, 2-chloro-N-[[2,3-difluoro-4-[5-(trifluoromethyl)-1,2,4-oxadiazol-3-yl]phenyl]methyl]-N-methoxy-benzamide]
≥ 80%: pest or weed control at 200 ppm [1] | pest or weed control at 200 ppm (Phakopsora Pachyrhizi) | inhibition of growth at 20 ppm [2]

CCON(Cc1ccc(-c2noc(C(F)(F)F)n2)cc1)C(=O)C1CCC1 [Compound 1.619, N-ethoxy-N-[[4-[5-(trifluoromethyl)-1,2,4-oxadiazol-3-yl]phenyl]methyl]-cyclobutane-carboxamide]
≥ 80%: pest or weed control at 200 ppm [1] | pest or weed control at 200 ppm (Phakopsora Pachyrhizi) | inhibition of growth at 20 ppm [2]

CCON(Cc1ccc(-c2noc(C(F)(F)F)n2)cc1)C(=O)CC#N [Compound 1.627, 2-cyano-N-ethoxy-N-[[4-[5-(trifluoromethyl)-1,2,4-oxadiazol-3-yl)phenyl]methyl]-acetamide]
≥ 80%: pest or weed control at 200 ppm [1] | pest or weed control at 200 ppm (Phakopsora Pachyrhizi) | inhibition of growth at 20 ppm [2]

CCON(Cc1ccc(-c2noc(C(F)(F)F)n2)cc1)C(=O)C1(C#N)CC1 [Compound 1.628, 1-cyano-N-ethoxy-N-[[4-[5-(trifluoromethyl)-1,2,4-oxadiazol-3-yl]phenyl]methyl]-cyclopropane-carboxamide]
≥ 80%: pest or weed control at 200 ppm [1] | pest or weed control at 200 ppm (Phakopsora Pachyrhizi) | inhibition of growth at 20 ppm [2]

CCCCON(Cc1ccc(-c2noc(C(F)(F)F)n2)cc1)C(=O)C1CCOC1 (stereo not drawn) [Compound 1.636, N-butoxy-N-[[4-[5-(trifluoromethyl)-1,2,4-oxadiazol-3-yl]phenyl]methyl]-tetrahydrofuran-3-carboxamide]
≥ 80%: pest or weed control at 200 ppm [1] | pest or weed control at 200 ppm (Phakopsora Pachyrhizi) | inhibition of growth at 20 ppm [2]
